From patent EP0322748B1, “Antibiotic NK86-0279, process for production of the same and application of the same” (NIPPON KAYAKU KABUSHIKI KAISHA, priority 1987, dated 1989)
In brackets after ≈: the same amount, converted by molar mass.

Legend:
[1] = test system: human colonic cancer cells (SWlll6); test: growth-inhibitory effect on human colonic cancer cells, dye exclusion method; type: cell-based
Protocol: (§1) The growth-inhibitory effects of the compound of the present invention on mouse colonic cancer cells (Colon 26) and human colonic cancer cells (SWlll6) were examined. A 96-well plate was inoculated with mouse colonic cancer cells at a ratio of 1.5 x 10³ cells per well, while another 96-well plate was inoculated with human colonic cancer cells at a ratio of 3.0 x 10³ per well. These cells were incubated in an incubator at 37°C under 5 % CO₂ for 24 hours. Then the compound of the present invention was added thereto at various concentrations. Cells in each well were counted by the dye exclusion method 65 hours and 96 hours after the addition to thereby evaluate the growth-inhibitory effect of the test compound on the mouse colonic cancer cells and that on the human colonic cancer cells.

acute toxicity = settings: mouse, in vivo, ip; mice
Fusarium roseum f. sp. = test: antifungal spectrum (minimum inhibitory concentration on agar); type: cell-based; settings: Fusarium sambucinum; Czapek Dox solution agar
Text: (§2) The antifungal spectrum of the compound of the present invention was examined.

Candida albicans = test: as above; type: cell-based; settings: Czapek Dox solution agar
Text: as §2

Torula herbarum = test: as above; type: cell-based; settings: Czapek Dox solution agar
Text: as §2

Botrytis cinerea = test: as above; type: cell-based; settings: potato sucrose agar medium was used
Text: as §2

[2] = test system: Sporobolomyces salmonicolor; test: as above; type: cell-based; settings: Czapek Dox solution agar
Text: as §2

Aspergillus oryzae = test: as above; type: cell-based; settings: Czapek Dox solution agar
Text: as §2

Aspergillus niger = test: as above; type: cell-based; settings: Czapek Dox solution agar
Text: as §2

Mucor javanicus = test: as above; type: cell-based; settings: Czapek Dox solution agar
Text: as §2

Rhizopus hangchao = test: as above; type: cell-based; settings: Czapek Dox solution agar
Text: as §2

Penicillium chrysogenum = test: as above; type: cell-based; settings: Czapek Dox solution agar
Text: as §2

Saccharomyces cerevisiae = test: as above; type: cell-based; settings: Czapek Dox solution agar
Text: as §2

Glomerella cingulata = test: as above; type: cell-based; settings: Colletotrichum gloeosporioides; Czapek Dox solution agar
Text: as §2

[3] = test system: mouse melanoma cells (B16); test: growth-inhibitory effect on mouse melanoma cells, dye exclusion method; type: cell-based
Protocol: as §1, with “melanoma” for “colonic cancer”, “(B16)” for “(Colon 26)”, “(A375)” for “(SWlll6)”, “1.0” for “3.0”, “CO₂.” for “CO₂ for 24 hours.”, “hours” for “hours and 96 hours”

[4] = test system: mosquito culices (a sensitive species); test: insecticidal action, mortality rate of mosquito larvae; type: in vivo
Protocol: The insecticidal action of the compound of the present invention was examined by the following method. • (1) An imago of two-spotted spider mite acarids (a Kelthane-resistant species) was used as a test vermin, and the mortality rate thereof was assayed according to an ordinary method (described on page 327 of "Noyaku Seibutsu Kenteiho" edited by Toyoji Hosotsuji). Specifically, a solution of the compound of the present invention in acetone (0.1 %) was added to 0.5 ml of an aqueous sucrose solution (1 %) to have a predetermined concentration. Ten two-spotted spider mite acarids were released in a vessel (200-ml beaker), and the vessel was covered with a paraffin film. The agent solution prepared above was put on the paraffin film, and another praffin film was put thereon. The beaker was allowed to stand in a thermostatic chamber (20 ± 1°C) for a predetermined period of time, and the life and death of the test vermin was investigated. • (2) A larva of mosquito culices (a sensitive species) was used as a test vermin, and the mortality rate thereof was assayed according to an ordinary method (described on page 109 of "Noyaku Jikkenho I, Sacchuzaihen" published by Soft Science, Inc.). Specifically, 10 ml of well water was placed in a vessel (15-ml Schale), and 5 larvae of mosquito culices (the third stage) were released in the vessel. A solution of the compound of the present invention in acetone (0.1 %) was added thereto so as to have a predetermined concentration. The vessel was allowed to stand in a thermostatic chamber (26 ± 1°C) for a predetermined period of time, and the life and death of the test vermin was investigated.

[5] = test system: vascularization by the Ehrlich ascites tumor cells crude extract; test: vascularization-inhibitory effect, corneal assay; type: in vivo; settings: slow-releasing pellet in rabbit cornea, compared with a control group
Protocol: The vascularization-inhibitory effect of the compound of the present invention was examined by corneal assay reported by M.A. Gimbrone et al. (J. National Cancer Inst., 52, 413 (1974)). Namely, the center of the cornea of the eye of a rabbit was incised with a knife at a length of approximately 2 mm to thereby form a pouch. Then a slow-releasing pellet containing 100 µg of a crude extract of Ehrlich ascites tumor cells, which had been preliminarily prepared according to a method proposed by R. Langer et al. (Nature, 263, 797 […]), was introduced into the pouch. Further another slow-releasing pellet containing 0.3 to 81 µg of the compound of the present invention was introduced thereinto so as to contact these pellets with each other. Then the degree of vascularization was observed four, six, eight and ten days after the introduction.

CCC1C=CC=CCC(C)C(O)C(C)(O)C(=O)C(C)C(O)C(C)C(=O)C(C)C(O)C(C)C=CC(=O)OC2C(C)C(CC1)OC1(OC(CC(C)O)C(C)CC1=O)C2CC (stereo not drawn) [NK86-0279]
inhibition at 0.0061 µg/mL ([1]; Homo sapiens, SW 1116, SWlll6, 0.0061 µg/ml, read-out: Growth-inhibitory ratio): 33.3% | inhibition at 0.024 µg/mL ([1]; Homo sapiens, SW 1116, SWlll6, 0.024 µg/ml, read-out: Growth-inhibitory ratio): 51.7% | inhibition at 0.098 µg/mL ([1]; Homo sapiens, SW 1116, SWlll6, 0.098 µg/ml, read-out: Growth-inhibitory ratio): 54.6% | inhibition at 0.39 µg/mL ([1]; Homo sapiens, SW 1116, SWlll6, 0.39 µg/ml, read-out: Growth-inhibitory ratio): 53.5% | inhibition at 1.56 µg/mL ([1]; Homo sapiens, SW 1116, SWlll6, 1.56 µg/ml, read-out: Growth-inhibitory ratio): 52.2% | inhibition at 6.25 µg/mL ([1]; Homo sapiens, SW 1116, SWlll6, 6.25 µg/ml, read-out: Growth-inhibitory ratio): 80.8% | inhibition at 25 µg/mL ([1]; Homo sapiens, SW 1116, SWlll6, 25 µg/ml, read-out: Growth-inhibitory ratio): 91.9% | inhibition at 100 µg/mL ([1]; Homo sapiens, SW 1116, SWlll6, 100 µg/ml, read-out: Growth-inhibitory ratio): 90.7% | IC50 ([1]; human colonic cancer cells (SWlll6), read-out: IC₅₀): 0.021 µg/mL (≈ 0.0256 µM) | LD50 (acute toxicity): 1.67 mg/kg | MIC (Fusarium roseum f. sp.): 6.25 µg/mL (≈ 7.63 µM) | MIC (Candida albicans): > 100 µg/mL | MIC (Torula herbarum): 3.13 µg/mL (≈ 3.82 µM) | MIC (Botrytis cinerea): 12.5 µg/mL (≈ 15.3 µM) | MIC [2]: 6.25 µg/mL (≈ 7.63 µM) | MIC (Aspergillus oryzae): 3.13 µg/mL (≈ 3.82 µM) | MIC (Aspergillus niger): 6.25 µg/mL (≈ 7.63 µM) | MIC (Mucor javanicus): > 100 µg/mL | MIC (Rhizopus hangchao): 6.25 µg/mL (≈ 7.63 µM) | MIC (Penicillium chrysogenum): 1.56 µg/mL (≈ 1.9 µM) | MIC (Saccharomyces cerevisiae): > 100 µg/mL | MIC (Glomerella cingulata): 6.25 µg/mL (≈ 7.63 µM) | inhibition at 0.0061 µg/mL ([3]; Mus musculus, 65 h, B16, 0.0061 µg/ml, read-out: Growth-inhibitory ratio): 5.3% | inhibition at 0.024 µg/mL ([3]; Mus musculus, 65 h, B16, 0.024 µg/ml, read-out: Growth-inhibitory ratio): 36.8% | inhibition at 0.098 µg/mL ([3]; Mus musculus, 65 h, B16, 0.098 µg/ml, read-out: Growth-inhibitory ratio): 43.1% | inhibition at 0.39 µg/mL ([3]; Mus musculus, 65 h, B16, 0.39 µg/ml, read-out: Growth-inhibitory ratio): 45.3% | inhibition at 1.56 µg/mL ([3]; Mus musculus, 65 h, B16, 1.56 µg/ml, read-out: Growth-inhibitory ratio): 48.9% | inhibition at 6.25 µg/mL ([3]; Mus musculus, 65 h, B16, 6.25 µg/ml, read-out: Growth-inhibitory ratio): 89.7% | inhibition at 25 µg/mL ([3]; Mus musculus, 65 h, B16, 25 µg/ml, read-out: Growth-inhibitory ratio): 105% | inhibition at 100 µg/mL ([3]; Mus musculus, 65 h, B16, 100 µg/ml, read-out: Growth-inhibitory ratio): 105% | IC50 ([3]; mouse melanoma cells (B16), 65 hours after the addition, read-out: IC₅₀): 1.62 µg/mL (≈ 1.98 µM) | mortality at 1 ppm ([4]; 48 h, after 2 days): 0% | mortality at 10 ppm ([4]; 48 h, after 2 days): 100% | mortality at 1 ppm ([4]; 144 h, 6 days): 0% | mortality at 10 ppm ([4]; 144 h, 6 days): 100% | mortality at 1 ppm ([4]; 216 h, 9 days): 0% | mortality at 10 ppm ([4]; 216 h, 9 days): 100% | degree of vascularization ([5]; 1 µg or above): significantly retarded till the fourth day | degree of vascularization ([5]; 1.7 µg or above): till the eighth day
